Species on record: Rattus norvegicus
Assay: DrugMatrix - Regimen: Daily Repeat
Type: toxicity, organism-based, Sprague-Dawley
Set-up: regimen Daily Repeat, gender Male, age 6-8 weeks
Conditions: in vivo, po, route oral GAVAGE, vehicle 100 % WATER; for ABSOLUTE BASOPHIL / ABSOLUTE EOSINOPHIL / ABSOLUTE LYMPHOCYTE / ABSOLUTE MONOCYTE / ABSOLUTE SEGMENTED NEUTROPHIL / BASOPHIL / EOSINOPHIL / ERYTHROCYTE COUNT / HEMATOCRIT / HEMOGLOBIN / LEUKOCYTE COUNT / LYMPHOCYTE / MEAN CORPUSCULAR HEMOGLOBIN / MEAN CORPUSCULAR HEMOGLOBIN CONCENTRATION / MEAN CORPUSCULAR VOLUME / MONOCYTE / NEUTROPHIL / NUCLEATED RED BLOOD CELLS / PLATELET COUNT: tissue Blood; for ALANINE AMINOTRANSFERASE / ALBUMIN / ALKALINE PHOSPHATASE / ASPARTATE AMINOTRANSFERASE / BLOOD UREA NITROGEN / CARBON DIOXIDE / CHLORIDE / CHOLESTEROL / CREATINE PHOSPHOKINASE / CREATININE / GLUCOSE / LACTATE DEHYDROGENASE / LIPASE / PHOSPHORUS / POTASSIUM / SODIUM / TOTAL BILIRUBIN / TOTAL PROTEIN / URIC ACID: tissue Plasma
[1] = 0 mg/kg, 72 h, dose level Control, time 3 day
[2] = 0 mg/kg, 120 h, dose level Control, time 5 day
[3] = 30 mg/kg, 72 h, dose level Low, time 3 day

SMILES: CC(C)NCC(O)c1ccc(NS(C)(=O)=O)cc1 (centres undefined) [SOTALOL]
- ABSOLUTE BASOPHIL [1]: 0 CELLS/uL
- ABSOLUTE EOSINOPHIL [1]: 102 CELLS/uL
- ABSOLUTE LYMPHOCYTE [1]: 12758 CELLS/uL
- ABSOLUTE MONOCYTE [1]: 197.17 CELLS/uL
- ABSOLUTE SEGMENTED NEUTROPHIL [1]: 1259.5 CELLS/uL
- BASOPHIL [1]: 0%
- EOSINOPHIL [1]: 0.83%
- ERYTHROCYTE COUNT [1]: 5.3 x10E6/uL
- HEMATOCRIT [1]: 33.47%
- HEMOGLOBIN [1]: 13.12 G/DL
- LEUKOCYTE COUNT [1]: 14.32 x10E3/uL
- LYMPHOCYTE [1]: 89.33%
- MEAN CORPUSCULAR HEMOGLOBIN [1]: 24.8 pg
- MEAN CORPUSCULAR HEMOGLOBIN CONCENTRATION [1]: 39.18 G/DL
- MEAN CORPUSCULAR VOLUME [1]: 63.25 fL
- MONOCYTE [1]: 1.33%
- NEUTROPHIL [1]: 8.5%
- NUCLEATED RED BLOOD CELLS [1]: 0 /100WBC
- PLATELET COUNT [1]: 1313.17 x10E3/uL
- ALANINE AMINOTRANSFERASE [1]: 52.67 u/L
- ALBUMIN [1]: 4.05 G/DL
- ALKALINE PHOSPHATASE [1]: 372 u/L
- ASPARTATE AMINOTRANSFERASE [1]: 82.83 u/L
- BLOOD UREA NITROGEN [1]: 15 mg/dL
- CARBON DIOXIDE [1]: 25.67 mmol/L
- CHLORIDE [1]: 102.17 MEQ/L
- CHOLESTEROL [1]: 68.83 mg/dL
- CREATINE PHOSPHOKINASE [1]: 285 u/L
- CREATININE [1]: 0.18 mg/dL
- GLUCOSE [1]: 149.17 mg/dL
- LACTATE DEHYDROGENASE [1]: 263.83 u/L
- LIPASE [1]: 10.17 u/L
- PHOSPHORUS [1]: 12.58 mg/dL
- POTASSIUM [1]: 6.58 MEQ/L
- SODIUM [1]: 144.22 MEQ/L
- TOTAL BILIRUBIN [1]: 0.22 mg/dL
- TOTAL PROTEIN [1]: 5.83 G/DL
- URIC ACID [1]: 1.58 mg/dL
- ABSOLUTE BASOPHIL [2]: 0 CELLS/uL
- ABSOLUTE EOSINOPHIL [2]: 24 CELLS/uL
- ABSOLUTE LYMPHOCYTE [2]: 11134.17 CELLS/uL
- ABSOLUTE MONOCYTE [2]: 56.33 CELLS/uL
- ABSOLUTE SEGMENTED NEUTROPHIL [2]: 1235.5 CELLS/uL
- BASOPHIL [2]: 0%
- EOSINOPHIL [2]: 0.17%
- ERYTHROCYTE COUNT [2]: 5.68 x10E6/uL
- HEMATOCRIT [2]: 35.72%
- HEMOGLOBIN [2]: 13.93 G/DL
- LEUKOCYTE COUNT [2]: 12.45 x10E3/uL
- LYMPHOCYTE [2]: 89.5%
- MEAN CORPUSCULAR HEMOGLOBIN [2]: 24.63 pg
- MEAN CORPUSCULAR HEMOGLOBIN CONCENTRATION [2]: 39.13 G/DL
- MEAN CORPUSCULAR VOLUME [2]: 62.97 fL
- MONOCYTE [2]: 0.5%
- NEUTROPHIL [2]: 9.83%
- NUCLEATED RED BLOOD CELLS [2]: 0 /100WBC
- PLATELET COUNT [2]: 1204 x10E3/uL
- ALANINE AMINOTRANSFERASE [2]: 59.5 u/L
- ALBUMIN [2]: 4.38 G/DL
- ALKALINE PHOSPHATASE [2]: 415.67 u/L
- ASPARTATE AMINOTRANSFERASE [2]: 91.33 u/L
- BLOOD UREA NITROGEN [2]: 17 mg/dL
- CARBON DIOXIDE [2]: 26.33 mmol/L
- CHLORIDE [2]: 104.17 MEQ/L
- CHOLESTEROL [2]: 77 mg/dL
- CREATINE PHOSPHOKINASE [2]: 249.67 u/L
- CREATININE [2]: 0.21 mg/dL
- GLUCOSE [2]: 148.33 mg/dL
- LACTATE DEHYDROGENASE [2]: 168.5 u/L
- LIPASE [2]: 10.17 u/L
- PHOSPHORUS [2]: 12.92 mg/dL
- POTASSIUM [2]: 7.09 MEQ/L
- SODIUM [2]: 148.37 MEQ/L
- TOTAL BILIRUBIN [2]: 0.23 mg/dL
- TOTAL PROTEIN [2]: 6.3 G/DL
- URIC ACID [2]: 1.77 mg/dL
- ABSOLUTE BASOPHIL [3]: 0 CELLS/uL
- ABSOLUTE EOSINOPHIL [3]: 90.67 CELLS/uL
- ABSOLUTE LYMPHOCYTE [3]: 14675.33 CELLS/uL
- ABSOLUTE MONOCYTE [3]: 254 CELLS/uL
- ABSOLUTE SEGMENTED NEUTROPHIL [3]: 1113.33 CELLS/uL
- BASOPHIL [3]: 0%
- EOSINOPHIL [3]: 0.67%
- ERYTHROCYTE COUNT [3]: 5.44 x10E6/uL
- HEMATOCRIT [3]: 34.57%
- HEMOGLOBIN [3]: 13.43 G/DL
- LEUKOCYTE COUNT [3]: 16.13 x10E3/uL
- LYMPHOCYTE [3]: 91%
- MEAN CORPUSCULAR HEMOGLOBIN [3]: 24.7 pg
- MEAN CORPUSCULAR HEMOGLOBIN CONCENTRATION [3]: 38.93 G/DL
- MEAN CORPUSCULAR VOLUME [3]: 63.47 fL
- MONOCYTE [3]: 1.67%
- NEUTROPHIL [3]: 6.67%
- NUCLEATED RED BLOOD CELLS [3]: 0.67 /100WBC
- PLATELET COUNT [3]: 1241 x10E3/uL
- ALANINE AMINOTRANSFERASE [3]: 52.67 u/L
- ALBUMIN [3]: 4.13 G/DL
- ALKALINE PHOSPHATASE [3]: 380.33 u/L
- ASPARTATE AMINOTRANSFERASE [3]: 95.67 u/L
- BLOOD UREA NITROGEN [3]: 15 mg/dL
- CARBON DIOXIDE [3]: 25.67 mmol/L
- CHLORIDE [3]: 102 MEQ/L
- CHOLESTEROL [3]: 74 mg/dL
- CREATINE PHOSPHOKINASE [3]: 490.33 u/L
- CREATININE [3]: 0.16 mg/dL
- GLUCOSE [3]: 152.33 mg/dL
- LACTATE DEHYDROGENASE [3]: 497 u/L
- LIPASE [3]: 10.33 u/L
- PHOSPHORUS [3]: 13.97 mg/dL
- POTASSIUM [3]: 6.87 MEQ/L
- SODIUM [3]: 144.53 MEQ/L
- TOTAL BILIRUBIN [3]: 0.23 mg/dL
- TOTAL PROTEIN [3]: 5.8 G/DL
- URIC ACID [3]: 2.13 mg/dL
